16 compounds from ChEMBL document CHEMBL1125172, “Voronoi binding site model of a polycyclic aromatic hydrocarbon binding protein” (J Med Chem, 1990) can be followed below.
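Further: competitive displacement of radiolabeled [3H]benzo[a]pyrene from its binding site on the protein taken from mouse liver.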

The subject of this assay is Polycyclic aromatic hydrocarbon binding protein. Particulars: Mus musculus.
Description: Competition for [3H]benzo[a]pyrene-binding site of polycyclic aromatic hydrocarbon binding protein (PBP) from mouse liver
On to `Oc1ccc2cc3ccc4cccc5ccc(c2c1)c3c45`, for which the Delta Gm is 18.3. As to `Nc1ccc2c(c1)Cc1ccccc1-2`, the Delta Gm is 11.9. The result for `c1ccc2c(c1)ccc1c3ccccc3ccc21` reads 17.9. Compound `c1ccc2cc3c4ccccc4c4ccccc4c3cc2c1` showed a Delta Gm of 18.6. The result for `c1ccc2c(c1)cc1ccc3cccc4ccc2c1c34` reads 19; that for `O[C@H]1C=Cc2c(cc3ccc4cccc5ccc2c3c45)[C@@H]1O`, 18.4. The same measure for `C1=Cc2cc3cccc4ccc5ccc1c2c5c43`: 15.8; for `c1cc2ccc3cccc4ccc(c1)c2c34`: 16.3; for `Cc1ccc2cc3c(ccc4ccccc43)c3c2c1CC3`: 17.4. Take `O[C@H]1c2cccc3ccc4c5ccccc5cc(c4c23)[C@@H]1O`: the Delta Gm is 17.4. The result for `O[C@@H]1C=Cc2cc3ccc4cccc5ccc(c2[C@H]1O)c3c45` reads 18.9. The result for `Nc1cccc2ccccc12` reads 14.4. Turning to `Nc1cccc2cc3ccccc3cc12`, the Delta Gm turned out to be 15.2. The same measure for `c1ccc2c(c1)-c1cccc3cccc-2c13`: 17.8; for `O[C@H]1C=C2c3ccccc3-c3cccc(c32)[C@@H]1O`: 17.7. The same measure for `Nc1cc2ccccc2c2ccccc12`: 15.2.
